Reference: patent publication US20150118311A1, “Highly Penetrative Nanocarriers for Treatment of CNS Disease” (priority 2012, published 2015)
Like-named read-outs stand apart in the source and are kept apart here.

Tests used:
GS5 cells = assay: GS5 cell proliferation/viability (MTT, AlamarBlue); assay type: cell-based, human
U87MG-derived xenografts = assay: Survival of nude rats with intracranial U87MG xenografts after CED; assay type: in vivo; conditions: U87MG xenograft
U87MG = assay: cells; conditions: Homo sapiens, U-87 MG, read-out: IC50, growth of U87MG in vitro
BCSCs = assay type: cell-based, human
BCSC sphere formation = assay: BCSC sphere formation
BCSC line PS11 = assay: Flow cytometry of CD133+ population in PS11; conditions: 1 μM
CD133+ cell population = assay: Flow cytometry of CD133+ cell population in BCSC culture; assay type: cell-based, human; conditions: 100 nM drug, 3 days after plating, DI treated culture
GS5-derived tumors = assay: Survival of nude rats with intracranial GS5 (BCSC) xenografts after CED; assay type: in vivo; conditions: BCSC xenograft tumors in the rat, FIG. 1C
[1] = Homo sapiens, 72 h, GS5 cells, three days after treatment, read-out: IC50 of candidate drugs on GS5 cells
[2] = Homo sapiens, 72 h, read-out: IC50 of candidate drugs on GS5 cells
[3] = GS5 cells, three days after treatment, read-out: IC50 of candidate drugs on GS5 cells
[4] = read-out: IC50 of candidate drugs on GS5 cells

With `CN(C)CCC(c1ccc(Cl)cc1)c1ccccn1` (stereo not shown) [Chlorpheniramine] the IC50 (GS5 cells; [1]) was 40.4 µM.
`CCN(CC)CCCC(C)Nc1c2ccc(Cl)cc2nc2ccc(OC)cc12` (stereo not shown) [Quinacrine] was tested, and the IC50 (GS5 cells; [1]) was 2.7 µM.
`COc1ccc2c(c1)[nH]c1c(C)nccc12` [Harmine] showed an IC50 (GS5 cells; [2]) of 19.3 µM.
With Acriflavine hydrochloride the IC50 (GS5 cells; [3]) was 3 µM.
`S=C(S)N1CCCC1` [Ammonium pyrrolidinedithiocarbamate] showed an IC50 (GS5 cells; [3]) of 3.3 µM.
`CCC(=O)[O-].CCC(=O)[O-].[Ca+2]` [Calcium propionate] gave an IC50 (GS5 cells; [4]) of 29.5 µM.
`C[C@H]1C[C@H]2[C@@H]3CCC4=CC(=O)C=C[C@]4(C)[C@@]3(F)[C@@H](O)C[C@]2(C)[C@@]1(O)C(=O)CO` [Betamethasone] was tested, and the IC50 (GS5 cells; [1]) was 25.9 µM.
Compound `CC(C)C[C@H]1C(=O)N2CCC[C@H]2[C@]2(O)O[C@](NC(=O)[C@@H]3C=C4c5cccc6[nH]c(Br)c(c56)C[C@H]4N(C)C3)(C(C)C)C(=O)N12` [Bromocriptine] has an IC50 (GS5 cells; [2]) of 9.1 µM.
`CC(=O)O[C@H]1C(=O)[C@@]2(C)[C@H]([C@H](OC(=O)c3ccccc3)[C@]3(O)C[C@H](OC(=O)[C@H](O)[C@@H](NC(=O)c4ccccc4)c4ccccc4)C(C)=C1C3(C)C)[C@]1(OC(C)=O)CO[C@@H]1C[C@@H]2O` [paclitaxel] was tested, and the “survival benefit compared to no treatment” value (U87MG-derived xenografts; CED) was “failed to show a survival benefit”, the median survival (U87MG-derived xenografts; single CED infusion 7 days after inoculation) was 30 days and the IC50 (U87MG) was 0.169 µM.
`Nc1nc2nc[nH]c2c(=S)[nH]1` [Thioguanine] was tested, and the IC50 (GS5 cells; [1]) was 4.6 µM.
`Sc1ncnc2nc[nH]c12` [6-Mercaptopurine monohydrate] was tested, and the IC50 (GS5 cells; [2]) was 7.8 µM.
`Nc1ccn([C@@H]2O[C@H](CO)[C@@H](O)[C@@H]2O)c(=O)n1` [Cytarabine] showed an IC50 (GS5 cells; [1]) of 0.8 µM.
In the case of `N=C(N)NCC(=O)O` [Glycocyamine], the IC50 (GS5 cells; [1]) is reported as 33.9 µM.
Compound `CCN(CC)CCNc1ccc(CO)c2sc3ccccc3c(=O)c12` [Hycanthone] has an IC50 (GS5 cells; [1]) of 5.6 µM.
`Cc1ccc2ccc3ccc(C)nc3c2n1` [Neocuproine] showed an IC50 (GS5 cells; [1]) of 0.2 µM.
In the case of `CC[C@H]1CN2CCc3cc(OC)c(OC)cc3[C@@H]2C[C@@H]1C[C@H]1NCCc2cc(OC)c(OC)cc21` [Emetine], the IC50 (GS5 cells; [1]) is reported as 0.3 µM.
With `CC1=C(C(=O)O)N2C(=O)[C@@H](NC(=O)[C@H](N)C3=CCC=CC3)[C@H]2SC1` [Cephradine] the IC50 (GS5 cells; [1]) was 38.5 µM.
In the case of `CN1CCC(Nc2ncc3ncnc(Nc4ccc(F)c(Cl)c4)c3n2)CC1` [Falnidamol], the IC50 (GS5 cells; [2]) is reported as 22 µM.
With `O=S(=O)([O-])[O-].[Fe+2]` [Iron(II) sulfate heptahydrate] the IC50 (GS5 cells; [4]) was 32.1 µM.
With `Nc1nc(Cl)nc2c1ncn2[C@H]1C[C@H](O)[C@@H](CO)O1` [Cladribine] the IC50 (GS5 cells; [1]) was 3.4 µM.
`C[C@@H]1O[C@@H](O[C@@H]2C=C3CC[C@@H]4[C@H](CC[C@]5(C)[C@@H](c6ccc(=O)oc6)CC[C@]45O)[C@@]3(C)CC2)[C@H](O)[C@H](O)[C@H]1O` [Proscillaridin A] gave an IC50 (GS5 cells; [4]) of 0.1 µM.
`CCCCCCCCCCCCCCCCOP(=O)([O-])OCC[N+](C)(C)C` [Miltefosine] gave an IC50 (GS5 cells; [1]) of 27.8 µM.
For `C[C@H]1O[C@@H](O[C@H]2[C@@H](O)C[C@H](O[C@H]3[C@@H](O)C[C@H](O[C@H]4CC[C@@]5(C)[C@H](CC[C@@H]6[C@@H]5C[C@@H](O)[C@]5(C)[C@@H](C7=CC(=O)OC7)CC[C@]65O)C4)O[C@@H]3C)O[C@@H]2C)C[C@H](O)[C@@H]1O` [Digoxin], the IC50 (GS5 cells; [2]) was 0.3 µM, the “effect on BCSC proliferation” value (BCSCs) was “inhibited BCSC proliferation” and the “performance on in vitro assays against BCSCs” value (BCSCs) was “performed well”. The “effect on BCSC sphere formation” value (BCSC sphere formation; 1 μM) was “inhibited BCSC sphere formation”, the “effect on BCSC sphere formation” value (BCSC sphere formation; 5 μM) was “inhibited BCSC sphere formation” and the “effect on CD133+ population” value (BCSC line PS11) was “decreased the CD133+ population”.
Compound `CC1=C2N=C(C=C3N=C(C(C)=C4[N-]C(C(CC(N)=O)C4(C)CCC(=O)NCC(C)OP(=O)([O-])OC4C(CO)OC(n5cnc6cc(C)c(C)cc65)C4O)C4(C)N=C1C(CCC(N)=O)C4(C)CC(N)=O)C(CCC(N)=O)C3(C)C)C(CCC(N)=O)C2(C)CC(N)=O.Cl.[Co+3].[OH-]` (stereo not shown) [Hydroxocobalamin hydrochloride] has an IC50 (GS5 cells; [4]) of 32.1 µM.
In the case of `COc1ccc(C[C@H]2NC[C@H](O)[C@H]2OC(C)=O)cc1` [Anisomycin], the IC50 (GS5 cells; [4]) is reported as 0.3 µM and the “performance on in vitro assays against BCSCs” value (BCSCs) is reported as “performed well”.
With `CCN1/C(=C/C=C/C=C/c2sc3ccccc3[n+]2CC)Sc2ccccc21` [Dithiazanine iodide] the IC50 (GS5 cells; [1]) was 0.3 µM, the IC50 (GS5 cells; Homo sapiens, GS5, running text, read-out: IC50, inhibition of GS5 proliferation) was 0.079 µM and the “decrease of CD133+ cell population” value (CD133+ cell population) was 57%. It also gave a median survival (GS5-derived tumors) of 177 days.
